Columns and labels:
Hop62 (lung) = test: In vitro cytotoxicity, 48 h continuous drug exposure; format: cell-based, human
Protocol: (§1) In vitro evaluation of cytotoxic activity. The compound 5a, 5b, 5g, 5i and 5j were evaluated for in vitro anticancer activity against nine human tumour cells derived from six cancer types (colon, prostate, oral, lung, cervix and breast cancer) as shown in Table 3. […] Compounds 5a, 5b, 5g, 5i and 5j have been evaluated for their in vitro cytotoxicity in selected human cancer cell lines of colon (Colo205), lung (Hop-62), cervix (SiHa), prostate (DU145, PC3), oral (DWD, HT1080), and breast (MCF7, Zr-75-1) origin. A protocol of 48 h continuous drug exposure has been used and an […] has been used to estimate cell viability or growth. […] Compound 5a, Colo205 cell growth by 83%, DU145 cell growth by 84%, DWD cell growth by 70%, Hop62 cell growth by 87%, HT1080 cell growth by 80%, MCF7 cell growth by 73%, PC3 cell growth by 91%, SiHa cell growth by 67%, Zr-75-1 cell growth by 76%. Compound 5b, Colo205 cell growth by 20%, DU145 cell growth by 64%, DWD cell growth by 70%, Hop62 cell growth by 78%, HT1080 cell growth by 72%, MCF7 cell growth by 69%, PC3 cell growth by 72%, SiHa cell growth by 20%, Zr-75-1 cell growth by 20%. Compound 5g, Colo205 cell growth by 50%, DU145 cell growth by 20%, DWD cell growth by 94%, Hop62 cell growth by 84%, HT1080 cell growth by 94%, MCF7 cell growth by 71%, PC3 cell growth by 86%, SiHa cell growth by 74%, Zr-75-1 cell growth by 72%. Compound 5i, DU145 cell growth by 42%, Hop62 cell growth by 60%, HT1080 cell growth by 70%, Compound 5j, Colo205 cell growth by 44%, DU145 cell growth by 57%, DWD cell growth by 65%, Hop62 cell growth by 53%, HT1080 cell growth by 71%, PC3 cell growth by 81%, SiHa cell growth by 77%.

DU145 (prostate) = test: as above; format: cell-based, human
Protocol: as §1

Colo205 (colon) = test: as above; format: cell-based, human
Protocol: as §1

PC3 (prostate) = test: as above; format: cell-based, human
Protocol: as §1

HT1080 (oral) = test: as above; format: cell-based, human
Protocol: as §1

DWD (oral) = test: as above; format: cell-based, human
Protocol: as §1

SiHa (cervix) = test: as above; format: cell-based, human
Protocol: as §1

Zr-75-1 (breast) = test: as above; format: cell-based, human
Protocol: as §1

MCF7 (breast) = test: as above; format: cell-based, human
Protocol: as §1

[1] = tested on: duplex-form calf thymus DNA (CT-DNA); test: Thermal denaturation studies with CT-DNA; format: binding
Protocol: Compounds were subjected to thermal denaturation studies with duplex-form calf thymus DNA (CT-DNA) using an adaptation of a reported procedure. Working solutions in aqueous buffer (10 mM NaH2PO4/Na2HPO4, 1 mM Na2EDTA, pH 7.00+0.01) containing CT-DNA (100 μm in phosphate) and the PBD (20 μm) were prepared by addition of concentrated PBD solutions in DMSO to obtain a fixed [PBD]/[DNA] molar ratio of 1:5. The DNA-PBD solutions were incubated at 37° C. for 0, 18, and 36 h prior to analysis. Samples were monitored at 260 nm using a Beckman DU-7400 spectrophotometer fitted with high performance temperature controller, and heating was applied at 1° C. min−1 in the 40-90° C. range. DNA helix coil transition temperatures (Tm) were obtained from the maxima in the (dA260)/dT derivative plots. Results are given as the mean ±standard deviation from three determinations and are corrected for the effects of DMSO co-solvent using a linear correction term. Drug-induced alterations in DNA melting behaviour are given by: ΔTm=Tm(DNA+PBD)−Tm (DNA alone), where the Tm value for the PBD-free CT-DNA is 69.0±0.01.

[2] = tested on: selected human cancer cell lines; test: In vitro cytotoxicity in selected human cancer cell lines (overall statements); format: cell-based; settings: Table 3
Protocol: as §1

sixty human tumour cells = test: NCI in vitro anticancer screen, SRB protein assay, mean graph midpoints; format: cell-based; settings: human tumour cell lines, 48 h continuous drug exposure
Protocol: Biological Activity: some of in vitro biological activity studies were carried out at the National Cancer Institute, Maryland, USA.
5e was evaluated for in vitro anticancer activity against sixty human tumour cells derived from nine cancer types (leukemia, non-small-cell lung, colon, CNS, melanoma, ovarian, prostate, and breast cancer) as shown in (Table 1 and 2). For the compound, dose response curves for each cell line were measured at a minimum of five concentrations at 10 fold dilutions. A protocol of 48 h continuous drug exposure was used and a sulforhodamine B (SRB) protein assay was used to estimate cell viability or growth. The concentration causing 50% cell growth inhibition (GI50), total cell growth inhibition (TGI 0% growth) and 50% cell death (LC50, −50% growth) compared with the control was calculated.

[3] = relative to untreated control cells

COc1cc2c(cc1OCCCCOc1ccc(Cl)cc1C(=O)c1ccccc1)N=C[C@@H]1CCCN1C2=O [Compound 5b, 7-methoxy-8-{4-[2-benzoyl-(4-chlorophenyloxy)butoxy]}-(11aS)-1,2,3,11a-tetrahydro-5H-pyrrolo[2,1-c][1,4]benzodiazepine-5-one]
Activity status in terms of IC50 value (Hop62 (lung); Hop62, Lung): 22 µg/mL
cell growth by % (Hop62 (lung); Hop62, relative to untreated control cells): 78%
Activity status in terms of IC50 value (DU145 (prostate); DU145, Prostate): 35 µg/mL
cell growth by % (DU145 (prostate); DU145, relative to untreated control cells): 64%
Activity status in terms of IC50 value (Colo205 (colon); Colo205, Colon): 32 µg/mL
cell growth by % (Colo205 (colon); Colo205, relative to untreated control cells): 20%
Activity status in terms of IC50 value (PC3 (prostate); PC3, Prostate): 28 µg/mL
cell growth by % (PC3 (prostate); PC3, relative to untreated control cells): 72%
Activity status in terms of IC50 value (HT1080 (oral); HT1080, Oral): 28 µg/mL
cell growth by % (HT1080 (oral); HT1080, relative to untreated control cells): 72%
Activity status in terms of IC50 value (DWD (oral); Oral): 30 µg/mL
cell growth by % (DWD (oral); [3]): 70%
Activity status in terms of IC50 value (SiHa (cervix); Cervix): >80 µg/mL
cell growth by % (SiHa (cervix); [3]): 20%
Activity status in terms of IC50 value (Zr-75-1 (breast); Zr-75-1, Breast): >80 µg/mL
cell growth by % (Zr-75-1 (breast); Zr-75-1, relative to untreated control cells): 20%
Activity status in terms of IC50 value (MCF7 (breast); MCF7, Breast): 31 µg/mL
cell growth by % (MCF7 (breast); MCF7, relative to untreated control cells): 69%
ΔTm after incubation at 37° C. for 0 h ([1]; [PBD]:[DNA] 1:5, CT-DNA 100 μM, ligand 20 μM, pH 7.00, 0 h): 1.5 °C
ΔTm after incubation at 37° C. for 18 h ([1]; [PBD]:[DNA] 1:5, CT-DNA 100 μM, ligand 20 μM, pH 7.00, 18 h): 2.1 °C
ΔTm after incubation at 37° C. for 36 h ([1]; [PBD]:[DNA] 1:5, CT-DNA 100 μM, ligand 20 μM, pH 7.00, 36 h): 2.6 °C
course of ΔTm over 0 hr, 18 hr and 36 hr (in words) ([1]; incubation at 37° C.): gradually increased
cytotoxicity against some cancer cell lines (in words) [2]: promising cytotoxicity

COc1cc2c(cc1OCCCCCOc1c(C)cc(Cl)cc1C(=O)c1ccccc1)N=C[C@@H]1CCCN1C2=O [Compound 5f, 7-methoxy-8-{3-[2-benzoyl-(4-chloro-6-methylphenyloxy)pentoxy]}-(11aS)-1,2,3,11a-tetrahydro-5H-pyrrolo[2,1-c][1,4]benzodiazepine-5-one]
Log10GI50 mean graph midpoint (MG_MID) (sixty human tumour cells): −6.47
Log10LC50 mean graph midpoint (MG_MID) (sixty human tumour cells): −4.89
Log10TGI mean graph midpoint (MG_MID) (sixty human tumour cells): −5.24

From patent US7528128B2, “Pyrrolo[2,1-C][1,4]benzodiazepine hybrids and a process for the preparation thereof” (Council of Scientific & Industrial Research, priority 2006, dated 2009)
